These results are taken from patent publication US20100130516A1, “PURINYL DERIVATIVES AND THEIR USE AS POTASSIUM CHANNEL MODULATORS” (NeuroSearch A/S, priority 2007, published 2010).

For the experiment, the target named is T1, hSK3 channels (Homo sapiens, UniProt Q9UGI6).
T1 construct: expressed in transfected cells; host or cells: HEK293
Briefly: Whole-cell patch-clamp recording of ionic current through SK channels (subtype 3). As to conditions: HEK293 cells expressing hSK3 channels. Format: cell-based. How it is done: The ionic current through small-conductance Ca^2+-activated K^+ channels (SK channels, subtype 3) is recorded using the whole-cell configuration of the patch-clamp technique in a classic patch-clamp set-up using HEK293 tissue culture cells expressing hSK3 channels as described in e.g. WO 2006/100212.
The SC100 value determined is defined as the Stimulating Concentration required for increasing the baseline current by 100%. The below SC100 value is an indication of the SK3 activating properties of the compound of the invention.

Turning to `Cc1ccn(-c2nc(Nc3ccc(F)c(F)c3)c3ncn(C)c3n2)n1` [Compound 5.1, (3,4-Difluoro-phenyl)-[9-methyl-2-(3-methyl-pyrazol-1-yl)-9H-purin-6-yl]-amine], the “SC100 (Stimulating Concentration required for increasing the baseline current by 100%)” value worked out at 0.04 µM.
